Laboratory results taken from ChEMBL document CHEMBL4411321, “Discovery of Potent, Selective, and Orally Bioavailable Estrogen-Related Receptor-γ Inverse Agonists To Restore the Sodium Iodide Symporter Function in Anaplastic Thyroid Cancer” (J Med Chem, 2019).

What was measured:
[1] = biological target: T1, Estrogen-related receptor gamma (Homo sapiens, UniProt P62508)
T1 sequence (P62508 whole entry): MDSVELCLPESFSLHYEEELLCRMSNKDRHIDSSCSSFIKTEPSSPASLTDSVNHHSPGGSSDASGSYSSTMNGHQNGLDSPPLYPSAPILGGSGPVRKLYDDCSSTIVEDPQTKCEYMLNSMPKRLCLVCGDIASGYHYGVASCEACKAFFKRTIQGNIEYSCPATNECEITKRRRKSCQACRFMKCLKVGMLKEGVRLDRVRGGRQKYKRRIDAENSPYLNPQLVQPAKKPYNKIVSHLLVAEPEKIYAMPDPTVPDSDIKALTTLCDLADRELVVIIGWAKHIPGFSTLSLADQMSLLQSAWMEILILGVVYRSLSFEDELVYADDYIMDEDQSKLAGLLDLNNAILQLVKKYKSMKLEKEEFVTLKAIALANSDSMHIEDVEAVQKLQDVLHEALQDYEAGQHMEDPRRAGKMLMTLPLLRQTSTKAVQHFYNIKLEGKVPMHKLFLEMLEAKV

CYP1A2 = biological target: T2, CYP1A2 (Homo sapiens, UniProt P05177); assay: Inhibition of CYP1A2 in human liver microsomes assessed as reduction in phenacetin O-deethylase activity at 10 uM preincubated for 5 mins followed by NADPH addition and measured after 15 mins by LC-MS/MS analysis relative to control; assay type: ADME; conditions: probe phenacetin (O-deethylation)
T2 sequence (P05177 whole entry): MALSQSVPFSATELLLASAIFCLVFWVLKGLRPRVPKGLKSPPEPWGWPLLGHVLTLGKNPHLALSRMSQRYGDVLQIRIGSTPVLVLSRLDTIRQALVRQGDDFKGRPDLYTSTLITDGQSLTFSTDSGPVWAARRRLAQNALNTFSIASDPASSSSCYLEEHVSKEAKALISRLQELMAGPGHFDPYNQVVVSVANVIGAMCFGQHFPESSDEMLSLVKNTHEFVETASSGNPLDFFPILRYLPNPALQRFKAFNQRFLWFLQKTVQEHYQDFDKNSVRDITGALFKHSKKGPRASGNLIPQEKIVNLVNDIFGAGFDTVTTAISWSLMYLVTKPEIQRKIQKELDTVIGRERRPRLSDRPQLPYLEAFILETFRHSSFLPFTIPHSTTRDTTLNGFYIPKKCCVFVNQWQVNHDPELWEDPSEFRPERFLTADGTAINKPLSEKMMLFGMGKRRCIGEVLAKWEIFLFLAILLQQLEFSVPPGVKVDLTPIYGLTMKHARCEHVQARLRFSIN

CYP2C9 = CYP2C9 (Homo sapiens, UniProt P11712); assay: Inhibition of CYP2C9 in human liver microsomes assessed as reduction in tolbutamide 4-hydroxylase activity at 10 uM preincubated for 5 mins followed by NADPH addition and measured after 15 mins by LC-MS/MS analysis relative to control; assay type: ADME; conditions: probe tolbutamide (4-hydroxylation)
Sequence of CYP2C9 (P11712 whole entry): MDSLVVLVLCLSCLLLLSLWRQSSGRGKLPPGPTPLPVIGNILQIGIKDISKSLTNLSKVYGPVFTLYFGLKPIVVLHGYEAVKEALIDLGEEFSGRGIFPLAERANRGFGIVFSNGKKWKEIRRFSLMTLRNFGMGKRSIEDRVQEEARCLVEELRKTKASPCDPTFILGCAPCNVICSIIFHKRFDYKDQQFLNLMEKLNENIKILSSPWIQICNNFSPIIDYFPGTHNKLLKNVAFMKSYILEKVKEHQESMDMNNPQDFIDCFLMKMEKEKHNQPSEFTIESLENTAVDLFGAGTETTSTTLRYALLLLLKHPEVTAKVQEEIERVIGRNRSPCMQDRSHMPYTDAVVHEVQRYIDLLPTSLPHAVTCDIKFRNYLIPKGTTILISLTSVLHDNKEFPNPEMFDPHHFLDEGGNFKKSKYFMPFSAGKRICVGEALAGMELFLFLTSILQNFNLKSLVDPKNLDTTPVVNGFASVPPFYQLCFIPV

CYP2C19 = CYP2C19 (Homo sapiens, UniProt P33261); assay: Inhibition of CYP2C19 in human liver microsomes assessed as reduction in S-mephenytoin 4-hydroxylase activity at 10 uM preincubated for 5 mins followed by NADPH addition and measured after 15 mins by LC-MS/MS analysis relative to control; assay type: ADME; conditions: probe S-mephenytoin (4-hydroxylation)
Sequence of CYP2C19 (P33261 whole entry): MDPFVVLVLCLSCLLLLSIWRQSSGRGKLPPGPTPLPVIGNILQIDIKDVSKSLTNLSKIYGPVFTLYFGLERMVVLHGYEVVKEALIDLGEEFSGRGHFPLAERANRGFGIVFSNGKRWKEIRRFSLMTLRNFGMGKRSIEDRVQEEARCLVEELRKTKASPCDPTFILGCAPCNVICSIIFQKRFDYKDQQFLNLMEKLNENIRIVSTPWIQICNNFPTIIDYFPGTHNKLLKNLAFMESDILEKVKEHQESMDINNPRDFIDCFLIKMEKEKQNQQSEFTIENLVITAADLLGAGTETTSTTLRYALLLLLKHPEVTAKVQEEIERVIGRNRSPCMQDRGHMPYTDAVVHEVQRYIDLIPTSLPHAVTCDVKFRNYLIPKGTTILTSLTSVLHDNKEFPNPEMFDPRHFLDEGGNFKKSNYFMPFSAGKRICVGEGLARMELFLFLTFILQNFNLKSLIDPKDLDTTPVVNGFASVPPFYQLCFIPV

CYP2D6 = CYP2D6 (Homo sapiens, UniProt P10635); assay: Inhibition of CYP2D6 in human liver microsomes assessed as reduction in dextromethorphan O-demethylase activity at 10 uM preincubated for 5 mins followed by NADPH addition and measured after 15 mins by LC-MS/MS analysis relative to control; assay type: ADME; conditions: probe dextromethorphan (O-demethylation)
Sequence of CYP2D6 (P10635 whole entry): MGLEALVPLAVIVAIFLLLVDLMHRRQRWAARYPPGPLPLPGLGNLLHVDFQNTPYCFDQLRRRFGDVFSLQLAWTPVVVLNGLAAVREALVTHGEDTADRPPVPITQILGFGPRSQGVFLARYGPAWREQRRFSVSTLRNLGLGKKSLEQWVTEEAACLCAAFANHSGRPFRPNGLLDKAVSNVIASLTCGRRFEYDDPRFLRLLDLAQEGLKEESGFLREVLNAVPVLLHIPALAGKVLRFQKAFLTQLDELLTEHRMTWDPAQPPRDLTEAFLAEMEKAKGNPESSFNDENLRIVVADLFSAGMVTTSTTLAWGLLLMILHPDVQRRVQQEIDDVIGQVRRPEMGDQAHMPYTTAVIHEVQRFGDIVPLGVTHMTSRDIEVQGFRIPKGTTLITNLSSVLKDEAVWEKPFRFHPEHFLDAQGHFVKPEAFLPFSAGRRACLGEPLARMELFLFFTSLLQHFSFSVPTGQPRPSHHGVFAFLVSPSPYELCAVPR

CYP3A4 = CYP3A4 (Homo sapiens, UniProt P08684); assay: Inhibition of CYP3A4 in human liver microsomes assessed as reduction in midazolam 1-hydroxylase activity at 10 uM preincubated for 5 mins followed by NADPH addition and measured after 15 mins by LC-MS/MS analysis relative to control; assay type: ADME; conditions: probe midazolam (1-hydroxylation)
Sequence of CYP3A4 (P08684 whole entry): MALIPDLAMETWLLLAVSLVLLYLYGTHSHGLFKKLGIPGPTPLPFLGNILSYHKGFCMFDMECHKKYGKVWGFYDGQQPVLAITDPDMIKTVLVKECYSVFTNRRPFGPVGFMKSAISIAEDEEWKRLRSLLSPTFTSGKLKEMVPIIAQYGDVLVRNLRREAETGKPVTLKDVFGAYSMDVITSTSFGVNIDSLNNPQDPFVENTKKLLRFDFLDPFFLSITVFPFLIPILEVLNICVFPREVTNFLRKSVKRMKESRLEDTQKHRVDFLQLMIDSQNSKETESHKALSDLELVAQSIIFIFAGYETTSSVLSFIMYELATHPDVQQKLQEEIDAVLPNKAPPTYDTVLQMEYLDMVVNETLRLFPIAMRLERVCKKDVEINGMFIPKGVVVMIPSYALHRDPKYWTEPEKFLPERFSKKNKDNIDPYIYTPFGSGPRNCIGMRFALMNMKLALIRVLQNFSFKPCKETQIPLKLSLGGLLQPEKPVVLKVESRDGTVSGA

[2] = Metabolic stability in human liver microsomes assessed as compound remaining at 1 uM after 30 mins in presence of NADPH regeneration system by LC-MS/MS analysis; assay type: ADME, Microsome; conditions: read-out: Stability
[3] = Metabolic stability in dog liver microsomes assessed as compound remaining at 1 uM after 30 mins in presence of NADPH regeneration system by LC-MS/MS analysis; assay type: ADME, Canis lupus familiaris, Microsome; conditions: read-out: Stability
[4] = Metabolic stability in rat liver microsomes assessed as compound remaining at 1 uM after 30 mins in presence of NADPH regeneration system by LC-MS/MS analysis; assay type: ADME, Microsome; conditions: read-out: Stability
[5] = Metabolic stability in mouse liver microsomes assessed as compound remaining at 1 uM after 30 mins in presence of NADPH regeneration system by LC-MS/MS analysis; assay type: ADME, Microsome; conditions: read-out: Stability
[6] = Effective permeability of the compound at 10 uM after 5 hrs by PAMPA; assay type: ADME; conditions: read-out: Peff
[7] = biological target: T3, Steroid hormone receptor ERR1 (Homo sapiens, UniProt P11474)
T3 sequence (P11474 whole entry): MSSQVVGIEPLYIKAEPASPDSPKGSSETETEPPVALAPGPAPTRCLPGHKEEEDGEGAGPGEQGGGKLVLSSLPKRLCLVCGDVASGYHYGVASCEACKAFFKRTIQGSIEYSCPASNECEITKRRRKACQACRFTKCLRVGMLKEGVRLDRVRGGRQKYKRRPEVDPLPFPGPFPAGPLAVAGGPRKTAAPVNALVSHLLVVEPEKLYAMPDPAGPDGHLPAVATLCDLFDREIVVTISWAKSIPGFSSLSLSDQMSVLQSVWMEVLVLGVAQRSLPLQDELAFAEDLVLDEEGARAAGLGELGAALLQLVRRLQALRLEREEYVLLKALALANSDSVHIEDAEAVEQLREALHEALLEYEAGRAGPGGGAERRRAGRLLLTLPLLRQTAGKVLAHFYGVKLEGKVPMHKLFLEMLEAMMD

Estrogen receptor = biological target: T4, Estrogen receptor (Homo sapiens, UniProt P03372)
T4 sequence (P03372 whole entry): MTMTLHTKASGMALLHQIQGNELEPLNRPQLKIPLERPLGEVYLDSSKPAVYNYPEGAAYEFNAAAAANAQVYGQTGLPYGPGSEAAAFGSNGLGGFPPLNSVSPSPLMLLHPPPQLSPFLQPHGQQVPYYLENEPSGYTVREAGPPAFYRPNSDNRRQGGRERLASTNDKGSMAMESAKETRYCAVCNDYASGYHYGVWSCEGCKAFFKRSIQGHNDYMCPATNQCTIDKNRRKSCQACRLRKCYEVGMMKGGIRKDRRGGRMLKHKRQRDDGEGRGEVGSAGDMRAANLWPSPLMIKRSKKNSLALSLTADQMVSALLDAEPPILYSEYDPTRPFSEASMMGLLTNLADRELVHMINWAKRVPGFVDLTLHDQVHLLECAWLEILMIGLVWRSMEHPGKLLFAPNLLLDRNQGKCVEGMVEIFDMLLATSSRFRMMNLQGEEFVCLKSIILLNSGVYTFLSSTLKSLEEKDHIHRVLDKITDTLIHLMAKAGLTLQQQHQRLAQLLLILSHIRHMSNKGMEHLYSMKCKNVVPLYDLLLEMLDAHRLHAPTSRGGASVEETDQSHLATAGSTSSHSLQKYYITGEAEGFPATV

[8] = biological target: T5, Steroid hormone receptor ERR2 (Homo sapiens, UniProt O95718); assay: Binding affinity to ERRbeta (unknown origin) using fluorescein-conjugated coactivator PGC-1alpha incubated for 1 hr by TR-FRET assay
T5 sequence (O95718 whole entry): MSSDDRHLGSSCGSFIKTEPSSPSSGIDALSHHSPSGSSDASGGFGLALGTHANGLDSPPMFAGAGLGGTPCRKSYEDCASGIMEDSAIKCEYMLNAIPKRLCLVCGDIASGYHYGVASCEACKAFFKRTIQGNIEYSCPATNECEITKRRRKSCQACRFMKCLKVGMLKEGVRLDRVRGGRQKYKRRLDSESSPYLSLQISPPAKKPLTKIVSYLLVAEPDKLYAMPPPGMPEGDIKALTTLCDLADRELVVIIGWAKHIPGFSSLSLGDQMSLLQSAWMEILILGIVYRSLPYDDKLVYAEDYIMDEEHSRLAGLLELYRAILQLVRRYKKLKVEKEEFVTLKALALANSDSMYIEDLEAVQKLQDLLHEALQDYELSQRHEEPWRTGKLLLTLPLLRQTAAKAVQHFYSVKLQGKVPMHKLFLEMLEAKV

## CC(C)N1CCN(c2ccc(/C(=C(/CCCO)c3ccccc3)c3ccc(OS(=O)(=O)C4CC4)cc3)cc2)CC1
[1]
  IC50: 1.36 µM

## CC(C)N1CCN(c2ccc(/C(=C(/CCCO)c3ccccc3)c3ccc(Br)cc3)cc2)CC1.Cl.Cl
CYP1A2
  inhibition at 0.25 h, 10 µM: 6.5%
CYP2C9
  inhibition at 0.25 h, 10 µM: 3.1%
CYP2C19
  inhibition at 0.25 h, 10 µM: 13.7%
CYP2D6
  inhibition at 0.25 h, 10 µM: 28.5%
CYP3A4
  inhibition at 0.25 h, 10 µM: 35.5%
[2]
  remaining at 0.5 h, 1 µM: > 100%
[3]
  remaining at 0.5 h, 1 µM: 64.4%
[4]
  remaining at 0.5 h, 1 µM: 74.2%
[5]
  remaining at 0.5 h, 1 µM: 48.5%
[6]
  Papp at 5 h, 10 µM: 0.37 ×10⁻⁶ cm/s
[7]
  IC50: > 10 µM
Estrogen receptor
  IC50: > 10 µM

## CN1CCN(c2ccc(/C(=C(/CCCO)c3ccccc3)c3ccc(OC(=O)C(C)(C)C)cc3)cc2)CC1
[1]
  IC50: 2.7 µM

## CC(C)N1CCN(c2cccc(/C(=C(/CCCO)c3ccccc3)c3cccc(O)c3)c2)CC1
[1]
  IC50: 5.62 µM

## CN1CCN(c2ccc(/C(=C(/CCCO)c3ccccc3)c3ccc(O)cc3)cc2)CC1
[8]
  IC50: 1.98 µM
[7]
  IC50: > 10 µM
Estrogen receptor
  IC50: 1.7 µM

## OCCC/C(=C(\c1ccc(O)cc1)c1ccc(N2CCN(C3COC3)CC2)cc1)c1ccccc1
[1]
  IC50: 0.214 µM

## Cc1ccc(/C(=C(\CCCO)c2ccccc2)c2ccc(N3CCNCC3)cc2)cc1.Cl.Cl
[8]
  IC50: 2.1 µM
CYP1A2
  inhibition at 0.25 h, 10 µM: 28.7%
CYP2C9
  inhibition at 0.25 h, 10 µM: 39.3%
CYP2C19
  inhibition at 0.25 h, 10 µM: 57.7%
CYP2D6
  inhibition at 0.25 h, 10 µM: 38.5%
CYP3A4
  inhibition at 0.25 h, 10 µM: 59.9%
[2]
  remaining at 0.5 h, 1 µM: 44%
[3]
  remaining at 0.5 h, 1 µM: 58%
[4]
  remaining at 0.5 h, 1 µM: 71.5%
[5]
  remaining at 0.5 h, 1 µM: 28.8%
[6]
  Papp at 5 h, 10 µM: 3.61 ×10⁻⁶ cm/s
[7]
  IC50: > 10 µM
Estrogen receptor
  IC50: > 10 µM

## OCCC/C(=C(\c1ccc(Br)cc1)c1ccc(N2CCNCC2)cc1)c1ccccc1
CYP1A2
  inhibition at 0.25 h, 10 µM: 15%
CYP2C9
  inhibition at 0.25 h, 10 µM: 24%
CYP2C19
  inhibition at 0.25 h, 10 µM: 38.1%
CYP2D6
  inhibition at 0.25 h, 10 µM: 29.3%
CYP3A4
  inhibition at 0.25 h, 10 µM: 45%
[2]
  remaining at 0.5 h, 1 µM: 65.1%
[4]
  remaining at 0.5 h, 1 µM: 84.7%
Estrogen receptor
  IC50: > 10 µM

## OCCC/C(=C(\c1ccc(O)cc1)c1ccc(N2CCN(C3CCCCC3)CC2)cc1)c1ccccc1
[1]
  IC50: 0.099 µM
[7]
  IC50: 9.7 µM
Estrogen receptor
  IC50: 2.12 µM

## OCCC/C(=C(\c1ccc(O)cc1)c1ccc(N2CCN(C3CCC3)CC2)cc1)c1ccccc1
[1]
  IC50: 0.053 µM
[7]
  IC50: > 10 µM
Estrogen receptor
  IC50: 1.66 µM

## CC(C)N1CCN(c2ccc(/C(=C(/CCCO)c3ccccc3)c3ccc(NS(=O)(=O)C4CC4)cc3)cc2)CC1
[1]
  IC50: 3.63 µM

## CC(C)N1CCN(c2ccc(/C(=C(/CCCO)c3ccccc3)c3ccc(OS(C)(=O)=O)cc3)cc2)CC1
[1]
  IC50: 2.63 µM

## CN1CCN(c2ccc(/C(=C(/CCCOC(=O)C(C)(C)C)c3ccccc3)c3ccc(O)cc3)cc2)CC1
[1]
  IC50: > 10 µM
